PubChem BioAssay (NCI)
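Interpolation was linear, between the two tested concentrations surrounding the appropriate level; five concentrations were tested over 48 hours in 96-well plates. TGI: concentration producing complete growth inhibition.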

How the values were obtained:
Assay in all cases: NCI-60 cell line screen, 48 h
SNB-75 CNS = tested on: SNB-75 CNS
SN12C renal = tested on: SN12C renal
HOP-18 NSCLC = tested on: HOP-18 NSCLC
COLO 205 colon = tested on: COLO 205 colon
SNB-19 CNS = tested on: SNB-19 CNS
A549 NSCLC = tested on: A549 NSCLC
A498 renal = tested on: A498 renal
RXF-631 renal = tested on: RXF-631 renal
DMS 114 small cell lung = tested on: DMS 114 small cell lung
UO-31 renal = tested on: UO-31 renal
NCI-H23 lung = tested on: NCI-H23 lung
M14 melanoma = tested on: M14 melanoma
IGROV1 ovarian = tested on: IGROV1 ovarian
RPMI-8226 leukemia = tested on: RPMI-8226 leukemia
UACC-257 melanoma = tested on: UACC-257 melanoma
SK-MEL-5 melanoma = tested on: SK-MEL-5 melanoma
SW-620 colon = tested on: SW-620 colon
HCC-2998 colon = tested on: HCC-2998 colon
SF-539 CNS = tested on: SF-539 CNS
KM20L2 colon = tested on: KM20L2 colon
UACC-62 melanoma = tested on: UACC-62 melanoma
RXF 393 renal = tested on: RXF 393 renal
U251 CNS = tested on: U251 CNS
SK-MEL-2 melanoma = tested on: SK-MEL-2 melanoma
NCI-H460 lung = tested on: NCI-H460 lung
SK-MEL-28 melanoma = tested on: SK-MEL-28 melanoma
SF-295 CNS = tested on: SF-295 CNS
HCT-116 colon = tested on: HCT-116 colon
EKVX NSCLC = tested on: EKVX NSCLC
XF 498 CNS = tested on: XF 498 CNS
DMS 273 small cell lung = tested on: DMS 273 small cell lung
OVCAR-3 ovarian = tested on: OVCAR-3 ovarian
KM12 colon = tested on: KM12 colon
TK-10 renal = tested on: TK-10 renal
MALME-3M melanoma = tested on: MALME-3M melanoma
K-562 leukemia = tested on: K-562 leukemia
CCRF-CEM leukemia = tested on: CCRF-CEM leukemia
MOLT-4 leukemia = tested on: MOLT-4 leukemia
LOX IMVI melanoma = tested on: LOX IMVI melanoma
M19-MEL melanoma = tested on: M19-MEL melanoma
HCT-15 colon = tested on: HCT-15 colon
SK-OV-3 ovarian = tested on: SK-OV-3 ovarian
OVCAR-8 ovarian = tested on: OVCAR-8 ovarian
ACHN renal = tested on: ACHN renal
HL-60(TB) leukemia = tested on: HL-60(TB) leukemia
CAKI-1 renal = tested on: CAKI-1 renal
LXFL 529 NSCLC = tested on: LXFL 529 NSCLC
SF-268 CNS = tested on: SF-268 CNS
DLD-1 colon = tested on: DLD-1 colon
NCI-H226 lung = tested on: NCI-H226 lung
OVCAR-4 ovarian = tested on: OVCAR-4 ovarian
HT29 colon = tested on: HT29 colon
OVCAR-5 ovarian = tested on: OVCAR-5 ovarian
786-0 renal = tested on: 786-0 renal
NCI-H522 lung = tested on: NCI-H522 lung
HOP-92 NSCLC = tested on: HOP-92 NSCLC
SNB-78 CNS = tested on: SNB-78 CNS
HOP-62 NSCLC = tested on: HOP-62 NSCLC

Molecule `N#CC(C(=O)C(N)=O)c1ccccc1Cl` (stereo not drawn) has a TGI (SNB-75 CNS) greater than 100 µM, a TGI (SN12C renal) greater than 100 µM and a TGI (HOP-18 NSCLC) greater than 100 µM. For the same molecule, the TGI (COLO 205 colon) was greater than 100 µM, the TGI (SNB-19 CNS) was greater than 100 µM and the TGI (A549 NSCLC) was greater than 100 µM. It also gave a TGI (A498 renal) greater than 100 µM, a TGI (RXF-631 renal) greater than 100 µM and a TGI (DMS 114 small cell lung) greater than 100 µM. The TGI (UO-31 renal) was greater than 100 µM, the TGI (NCI-H23 lung) was greater than 100 µM and the TGI (M14 melanoma) was greater than 100 µM. The TGI (IGROV1 ovarian) was greater than 100 µM, the TGI (RPMI-8226 leukemia) was greater than 100 µM and the TGI (UACC-257 melanoma) was greater than 100 µM. The TGI (SK-MEL-5 melanoma) was greater than 100 µM, the TGI (SW-620 colon) was greater than 100 µM and the TGI (HCC-2998 colon) was greater than 100 µM. The TGI (SF-539 CNS) was greater than 100 µM, the TGI (KM20L2 colon) was greater than 100 µM and the TGI (UACC-62 melanoma) was greater than 100 µM. The TGI (RXF 393 renal) was greater than 100 µM, the TGI (U251 CNS) was greater than 100 µM and the TGI (SK-MEL-2 melanoma) was greater than 100 µM. The TGI (NCI-H460 lung) was greater than 100 µM, the TGI (SK-MEL-28 melanoma) was greater than 100 µM and the TGI (SF-295 CNS) was greater than 100 µM. For the same molecule, the TGI (HCT-116 colon) was greater than 100 µM, the TGI (EKVX NSCLC) was greater than 100 µM and the TGI (XF 498 CNS) was greater than 100 µM. For the same molecule, the TGI (DMS 273 small cell lung) was greater than 100 µM, the TGI (OVCAR-3 ovarian) was greater than 100 µM and the TGI (KM12 colon) was greater than 100 µM. It also gave a TGI (TK-10 renal) greater than 100 µM, a TGI (MALME-3M melanoma) greater than 100 µM and a TGI (K-562 leukemia) greater than 100 µM. It also gave a TGI (CCRF-CEM leukemia) greater than 100 µM, a TGI (MOLT-4 leukemia) greater than 100 µM and a TGI (LOX IMVI melanoma) greater than 100 µM. For the same molecule, the TGI (M19-MEL melanoma) was greater than 100 µM, the TGI (HCT-15 colon) was greater than 100 µM and the TGI (SK-OV-3 ovarian) was greater than 100 µM. It also gave a TGI (OVCAR-8 ovarian) greater than 100 µM, a TGI (ACHN renal) greater than 100 µM and a TGI (HL-60(TB) leukemia) greater than 100 µM. For the same molecule, the TGI (CAKI-1 renal) was greater than 100 µM, the TGI (LXFL 529 NSCLC) was greater than 100 µM and the TGI (SF-268 CNS) was greater than 100 µM. It also gave a TGI (DLD-1 colon) greater than 100 µM, a TGI (NCI-H226 lung) greater than 100 µM and a TGI (OVCAR-4 ovarian) greater than 100 µM. The TGI (HT29 colon) was greater than 100 µM, the TGI (OVCAR-5 ovarian) was greater than 100 µM and the TGI (786-0 renal) was greater than 100 µM.

`CC1(C)OCC[C@@H]1[Si](C)(C)C` was tested, and the TGI (SNB-75 CNS) was greater than 100 µM, the TGI (SN12C renal) was greater than 100 µM and the TGI (HOP-18 NSCLC) was greater than 100 µM. It also gave a TGI (COLO 205 colon) greater than 100 µM, a TGI (SNB-19 CNS) greater than 100 µM and a TGI (A549 NSCLC) greater than 100 µM. For the same molecule, the TGI (A498 renal) was greater than 100 µM, the TGI (NCI-H522 lung) was 61 µM and the TGI (RXF-631 renal) was greater than 100 µM. The TGI (DMS 114 small cell lung) was greater than 100 µM, the TGI (UO-31 renal) was greater than 100 µM and the TGI (NCI-H23 lung) was greater than 100 µM. It also gave a TGI (M14 melanoma) greater than 100 µM, a TGI (IGROV1 ovarian) greater than 100 µM and a TGI (RPMI-8226 leukemia) greater than 100 µM. For the same molecule, the TGI (UACC-257 melanoma) was greater than 100 µM, the TGI (SK-MEL-5 melanoma) was greater than 100 µM and the TGI (HOP-92 NSCLC) was greater than 100 µM. For the same molecule, the TGI (SW-620 colon) was greater than 100 µM, the TGI (SF-539 CNS) was greater than 100 µM and the TGI (KM20L2 colon) was greater than 100 µM. For the same molecule, the TGI (UACC-62 melanoma) was greater than 100 µM, the TGI (RXF 393 renal) was 89.8 µM and the TGI (U251 CNS) was greater than 100 µM. The TGI (SK-MEL-2 melanoma) was greater than 100 µM, the TGI (NCI-H460 lung) was greater than 100 µM and the TGI (SK-MEL-28 melanoma) was greater than 100 µM. It also gave a TGI (SF-295 CNS) greater than 100 µM, a TGI (HCT-116 colon) greater than 100 µM and a TGI (EKVX NSCLC) greater than 100 µM. For the same molecule, the TGI (XF 498 CNS) was greater than 100 µM, the TGI (DMS 273 small cell lung) was greater than 100 µM and the TGI (OVCAR-3 ovarian) was greater than 100 µM. For the same molecule, the TGI (KM12 colon) was greater than 100 µM, the TGI (TK-10 renal) was greater than 100 µM and the TGI (MALME-3M melanoma) was greater than 100 µM. It also gave a TGI (K-562 leukemia) greater than 100 µM, a TGI (CCRF-CEM leukemia) greater than 100 µM and a TGI (MOLT-4 leukemia) greater than 100 µM. The TGI (LOX IMVI melanoma) was greater than 100 µM, the TGI (M19-MEL melanoma) was greater than 100 µM and the TGI (HCT-15 colon) was greater than 100 µM. It also gave a TGI (SK-OV-3 ovarian) greater than 100 µM, a TGI (OVCAR-8 ovarian) greater than 100 µM and a TGI (ACHN renal) greater than 100 µM. The TGI (LXFL 529 NSCLC) was greater than 100 µM, the TGI (SNB-78 CNS) was greater than 100 µM and the TGI (SF-268 CNS) was greater than 100 µM. The TGI (NCI-H226 lung) was greater than 100 µM, the TGI (OVCAR-4 ovarian) was greater than 100 µM and the TGI (HT29 colon) was greater than 100 µM. It also gave a TGI (OVCAR-5 ovarian) greater than 100 µM and a TGI (786-0 renal) greater than 100 µM.

`O=C(O)C(CO)N=Cc1nc(-c2ccccc2)oc1O` (stereo not drawn) showed a TGI (HOP-62 NSCLC) greater than 100 µM, a TGI (SNB-75 CNS) greater than 100 µM and a TGI (HOP-18 NSCLC) greater than 100 µM. The TGI (COLO 205 colon) was greater than 100 µM, the TGI (SNB-19 CNS) was greater than 100 µM and the TGI (A549 NSCLC) was greater than 100 µM. For the same molecule, the TGI (A498 renal) was greater than 100 µM, the TGI (NCI-H522 lung) was greater than 100 µM and the TGI (RXF-631 renal) was greater than 100 µM. The TGI (DMS 114 small cell lung) was greater than 100 µM, the TGI (UO-31 renal) was greater than 100 µM and the TGI (NCI-H23 lung) was greater than 100 µM. The TGI (M14 melanoma) was greater than 100 µM, the TGI (IGROV1 ovarian) was greater than 100 µM and the TGI (RPMI-8226 leukemia) was greater than 100 µM. It also gave a TGI (UACC-257 melanoma) greater than 100 µM, a TGI (SK-MEL-5 melanoma) greater than 100 µM and a TGI (HOP-92 NSCLC) greater than 100 µM. For the same molecule, the TGI (SW-620 colon) was greater than 100 µM, the TGI (HCC-2998 colon) was greater than 100 µM and the TGI (SF-539 CNS) was greater than 100 µM. The TGI (KM20L2 colon) was greater than 100 µM, the TGI (UACC-62 melanoma) was greater than 100 µM and the TGI (RXF 393 renal) was greater than 100 µM. It also gave a TGI (U251 CNS) greater than 100 µM, a TGI (SK-MEL-2 melanoma) greater than 100 µM and a TGI (NCI-H460 lung) greater than 100 µM. It also gave a TGI (SK-MEL-28 melanoma) greater than 100 µM, a TGI (SF-295 CNS) greater than 100 µM and a TGI (HCT-116 colon) greater than 100 µM. The TGI (EKVX NSCLC) was greater than 100 µM, the TGI (XF 498 CNS) was greater than 100 µM and the TGI (DMS 273 small cell lung) was greater than 100 µM. The TGI (OVCAR-3 ovarian) was greater than 100 µM, the TGI (KM12 colon) was greater than 100 µM and the TGI (TK-10 renal) was greater than 100 µM. The TGI (MALME-3M melanoma) was greater than 100 µM, the TGI (K-562 leukemia) was greater than 100 µM and the TGI (CCRF-CEM leukemia) was greater than 100 µM. For the same molecule, the TGI (LOX IMVI melanoma) was greater than 100 µM, the TGI (M19-MEL melanoma) was greater than 100 µM and the TGI (HCT-15 colon) was greater than 100 µM. The TGI (SK-OV-3 ovarian) was greater than 100 µM, the TGI (OVCAR-8 ovarian) was greater than 100 µM and the TGI (ACHN renal) was greater than 100 µM. For the same molecule, the TGI (HL-60(TB) leukemia) was greater than 100 µM, the TGI (CAKI-1 renal) was greater than 100 µM and the TGI (LXFL 529 NSCLC) was greater than 100 µM. It also gave a TGI (SNB-78 CNS) greater than 100 µM, a TGI (SF-268 CNS) greater than 100 µM and a TGI (DLD-1 colon) greater than 100 µM. For the same molecule, the TGI (NCI-H226 lung) was greater than 100 µM, the TGI (OVCAR-4 ovarian) was greater than 100 µM and the TGI (HT29 colon) was greater than 100 µM. The TGI (OVCAR-5 ovarian) was greater than 100 µM and the TGI (786-0 renal) was greater than 100 µM.
